Reference: patent publication US20090181898A1, “ABUSE-RESISTANT A[…]” (SHIRE LLC, priority 2002, published 2009)

Legend:
children with ADHD = test: Pediatric crossover efficacy study, SKAMP-Deportment score
[1] = Clinical pharmacokinetics, 25 and 75 mg, compared to Adderall XR and Dexedrine Spansule; conditions: human, in vivo, po; for AUC(0-inf): L-lysine-d-amphetamine intact conjugate AUCinf; for AUC(0-t): L-lysine-d-amphetamine intact conjugate AUClast; for Cmax: L-lysine-d-amphetamine intact conjugate Cmax; for half-life: L-lysine-d-amphetamine intact conjugate T1/2, human; for Tmax: L-lysine-d-amphetamine intact conjugate Tmax; for concentration at 0 h / concentration at 0.5 h / concentration at 1 h / concentration at 2 h / concentration at 3 h / concentration at 4 h / concentration at 5 h / concentration at 6 h / concentration at 7 h / concentration at 8 h / concentration at 10 h / concentration at 12 h / concentration at 16 h / concentration at 24 h / concentration at 48 h / concentration at 72 h: L-lysine-d-amphetamine intact conjugate concentration
[2] = 25 mg, oral 25 mg L-lysine-d-amphetamine, mean
[3] = 25 mg, oral 25 mg L-lysine-d-amphetamine, individual subjects
[4] = 75 mg, oral 75 mg L-lysine-d-amphetamine, mean
[5] = 75 mg, oral 75 mg L-lysine-d-amphetamine, individual subjects

CC(Cc1ccccc1)NC(=O)C(N)CCCCN [L-lysine-d-amphetamine, 2,6-diaminohexanoic acid-(1-methyl-2-phenylethyl)-amide]
Duration of action (children with ADHD; children 6-12, SKAMP): 12 h
Onset of significant effects post morning dose (children with ADHD; children 6-12, SKAMP): ≤ 2 h
SKAMP-Deportment score compared to placebo (children with ADHD; children 6-12, once daily for 1 week each treatment): highly effective compared to placebo
AUC(0-inf) [1, 2]: 13.5 ng·h/mL
AUC(0-t) [1, 2]: 11.3 ng·h/mL
Cmax [1, 2]: 11.6 ng/mL
half-life [1, 3]: 0.47 h
half-life [1, 2]: 0.419 h
Tmax [1, 3]: 1 h
Tmax [1, 2]: 1.05 h
concentration at 0 h [1, 3]: 0 ng/mL
concentration at 0 h [1, 2]: 0 ng/mL
concentration at 0.5 h [1, 2]: 5.1 ng/mL
concentration at 1 h [1, 2]: 11.2 ng/mL
concentration at 2 h [1, 2]: 2.2 ng/mL
concentration at 3 h [1, 3]: 0 ng/mL
concentration at 3 h [1, 2]: 0 ng/mL
concentration at 4 h [1, 3]: 0 ng/mL
concentration at 4 h [1, 2]: 0 ng/mL
concentration at 5 h [1, 3]: 0 ng/mL
concentration at 5 h [1, 2]: 0 ng/mL
concentration at 6 h [1, 3]: 0 ng/mL
concentration at 6 h [1, 2]: 0 ng/mL
concentration at 7 h [1, 3]: 0 ng/mL
concentration at 7 h [1, 2]: 0 ng/mL
concentration at 8 h [1, 3]: 0 ng/mL
concentration at 8 h [1, 2]: 0 ng/mL
concentration at 10 h [1, 3]: 0 ng/mL
concentration at 10 h [1, 2]: 0 ng/mL
concentration at 12 h [1, 3]: 0 ng/mL
concentration at 12 h [1, 2]: 0 ng/mL
concentration at 16 h [1, 3]: 0 ng/mL
concentration at 16 h [1, 2]: 0 ng/mL
concentration at 24 h [1, 3]: 0 ng/mL
concentration at 24 h [1, 2]: 0 ng/mL
concentration at 48 h [1, 3]: 0 ng/mL
concentration at 48 h [1, 2]: 0 ng/mL
concentration at 72 h [1, 3]: 0 ng/mL
concentration at 72 h [1, 2]: 0 ng/mL
AUC(0-inf) [1, 4]: 59.5 ng·h/mL
AUC(0-t) [1, 4]: 58.1 ng·h/mL
Cmax [1, 4]: 53.6 ng/mL
half-life [1, 4]: 0.534 h
Tmax [1, 5]: 1 h
Tmax [1, 4]: 1.05 h
concentration at 0 h [1, 5]: 0 ng/mL
concentration at 0 h [1, 4]: 0 ng/mL
concentration at 0.5 h [1, 4]: 20.5 ng/mL
concentration at 1 h [1, 4]: 53 ng/mL
concentration at 2 h [1, 4]: 9.1 ng/mL
concentration at 3 h [1, 4]: 2.6 ng/mL
concentration at 4 h [1, 4]: 0.8 ng/mL
concentration at 5 h [1, 5]: 0 ng/mL
concentration at 5 h [1, 4]: 0 ng/mL
concentration at 6 h [1, 5]: 0 ng/mL
concentration at 6 h [1, 4]: 0 ng/mL
concentration at 7 h [1, 5]: 0 ng/mL
concentration at 7 h [1, 4]: 0 ng/mL
concentration at 8 h [1, 5]: 0 ng/mL
concentration at 8 h [1, 4]: 0 ng/mL
